Structures are written as SMILES. Like-named read-outs stand apart in the source and are kept apart here.

Holding throughout (format): in vivo
One experiment relates to Plasmopara viticola. The experiment in a line: Test A: grape downy mildew, test suspension sprayed after inoculation, visual disease rating. The settings on record: grape seedlings, sprayed to run-off 24 h after inoculation.
Experiment [1] relates to Phytophthora infestans. To be noted: tomato seedlings, sprayed to run-off the day before inoculation.
Experiment [2] relates to Phytophthora infestans. The settings on record: tomato seedlings, sprayed to run-off 17 h after inoculation.
The mark [3] stands for this setting: no asterisk, test concentration not given.

With `CC(=O)N(Cc1csc(C2CCN(C(=O)Cn3nc(C(F)(F)F)cc3C)CC2)n1)[C@@H]1CCCc2ccccc21` [Compound 3, N-[[2-[1-[2-[5-methyl-3-(trifluoromethyl)-1H-pyrazol-1-yl]acetyl]-4-piperidinyl]-4-thiazolyl]methyl]-N-[(1R)-1,2,3,4-tetrahydro-1-naphthalenyl]acetamide], the “Test A rating (disease control)” value in the experiment on Plasmopara viticola (setting [3]) is 55%. The “Test B rating (disease control)” value in the experiment with Phytophthora infestans [1] (setting [3]) was 85%. Moreover, the “Test C rating (disease control)” value in the experiment on Phytophthora infestans [2] (setting [3]) is listed as 53%.
On the same counts, the results for `Cc1cc(C(F)(F)F)nn1CC(=O)N1CCC(c2nc(CN(C)[C@@H]3CCCc4ccccc43)cs2)CC1` [Compound 1, 1-[4-[4-[[methyl[(1R)-1,2,3,4-tetrahydro-1-naphthalenyl]amino]methyl]-2-thiazolyl]-1-piperidinyl]-2-[5-methyl-3-(trifluoromethyl)-1H-pyrazol-1-yl]ethanone] are 72%, 100% and 99%.
For `Cc1cc(C(F)(F)F)nn1CC(=O)N1CCC(c2nc(CN(C=O)[C@@H]3CCCc4ccccc43)cs2)CC1` [Compound 4, N-[[2-[1-[2-[5-methyl-3-(trifluoromethyl)-1H-pyrazol-1-yl]acetyl]-4-piperidinyl]-4-thiazolyl]methyl]-N-[(1R)-1,2,3,4-tatrahydro-1-naphthalenyl]formamide], the “Test A rating (disease control)” value with Plasmopara viticola (setting [3]) came out at 0%. Also, the “Test B rating (disease control)” value with Phytophthora infestans [1] (setting [3]) was found to be 87%. Besides, the “Test C rating (disease control)” value in the experiment with Phytophthora infestans [2] (setting [3]) turned out to be 26%.
For the compound `Cc1cc(C(F)(F)F)nn1CCC(=O)N1CCC(c2nc(C(=O)N(C)[C@@H]3CCCc4ccccc43)cs2)CC1` [Compound 5, N-methyl-2-[1-[3-[5-methyl-3-(trifluoromethyl)-1H-pyrazol-1-yl]-1-oxopropyl]-4-piperidinyl]-N-[(1R)-1,2,3,4-tetrahydro-1-naphthalenyl]-4-thiazolecarboxamide], in the experiment with Plasmopara viticola (compound tested at 40 ppm), the “Test A rating (disease control)” value stood at 17%. Besides, in the experiment on Phytophthora infestans [1] (compound tested at 40 ppm), the “Test B rating (disease control)” value worked out at 57%. Besides, the “Test C rating (disease control)” value in the experiment on Phytophthora infestans [2] (compound tested at 40 ppm) is on record as 0%.
On the same counts, the results for `CCOC(=O)C(C(=O)N1CCC(c2nc(C(=O)N(C)C3CCCc4ccccc43)cs2)CC1)n1nc(C(F)(F)F)cc1C` (stereo not drawn) [Compound 6, ethyl 4-[4-[[methyl(1,2,3,4-tetrahydro-1-naphthalenyl)amino]carbonyl]-2-thiazolyl]-α-[5-methyl-3-(trifluoromethyl)-1H-pyrazol-1-yl]-β-oxo-1-piperidinepropanoate] are 72%, 17% and 0%.
On to `Cc1cc(C(F)(F)F)nn1CC(=O)N1CCC(c2nc(CN[C@@H]3CCCc4ccccc43)cs2)CC1` [Compound 2, 2-[5-methyl-3-(trifluoromethyl)-1H-pyrazol-1-yl]-1-[4-[4-[[[(1R)-1,2,3,4-tetrahydro-1-naphthalenyl]amino]methyl]-2-thiazolyl]-1-piperidinyl]ethanone], for which the “Test A rating (disease control)” value in the experiment on Plasmopara viticola (setting [3]) stood at 28%. The “Test B rating (disease control)” value in the experiment on Phytophthora infestans [1] (setting [3]) is 100%. Further, in the experiment with Phytophthora infestans [2] (setting [3]), the “Test C rating (disease control)” value was found to be 93%.

The values above are taken from patent publication US8420673B2, “Fungicidal amides” (E I du Pont de Nemours and Company, priority 2007, dated 2013).
